Values after ≈ are worked out from the molar mass of the structure shown. Like-named read-outs stand apart in the source and are kept apart here.
Key:
[1] = MTT drug cytotoxicity assay in MRC5 cells; format: cell-based; settings: human, read-out: MTT assay Percent of control
Method: (§1) Human diploid embryonic lung (MRC5) cells were grown in 35 mm wells of 6-well tissue culture plates. Subconfluent cell monolayers were rinsed with phosphate-buffered saline (PBS) and were exposed to 0.5 ml/well of HCMV (strain AD169) suspension for 1.5 hours at 37° C. The virus suspension was diluted in MEM+2% fetal bovine serum (FBS) to yield a multipicity of infection (MOI) of approximately 0.1 plaque forming units (PFU)/cell. Following the virus adsorption period, the inocula were removed and infected cell layers were rinsed with PBS. Aliquiots (2.0 ml) of each test drug concentration (dissolved in MEM supplemented with 2% FBS) were dispensed into triplicate cell cultures: two virus-infected cultures and one uninfected cytotoxicity control culture (exposed to medium without virus for 1.5 hours). Untreated virus-infected control cultures and untreated, uninfected cell control cultures were fed with medium alone. The culture plates were incubated at 37° C. in a humidified atmosphere of 2% CO2 in air.
All cell culture fluids were replaced with fresh drug and medium 48 hours postinfection (p.i.).
Drug cytotoxicity was determined quantitatively by a method based on the reduction of the tetrazolium salt, 3-(4,5-dimethyl-thiazol-2-yl)-2,5-diphenyl tetrazolium bromide (MTT) by mitochondrial enzymes of viable host cells to MTT formazan (T. Mosmann, 1983). Drug cytotoxicity controls and cell controls were treated with MTT (dissolved in culture medium) followed by 20% SDS (in 0.02N HCl) to dissolve the crystals of MTT formazan. The blue color of the MTT formazan was measured spectrophotometrically at 570 nm. Drug cytotoxicity was determined by comparing the absorbance (O.D.) of each drug cytotoxicity control with the mean O.D. of the cell control cultures and expressed as percent of control.

[2] = system: Human Cytomegalovirus (HCMV) strain AD169; assay: HCMV virus yield reduction assay; format: cell-based; settings: Human betaherpesvirus 5, AD169, 144 h, MRC5 cells; for log reduction at 3.2 µg/mL: 3.2 μg/ml; for log reduction at 10 µg/mL: 10 μg/ml
Method: as §1, with “air. All cell culture fluids were replaced with fresh drug and medium 48 hours postinfection (p.i.). On Day 6 p.i., the cell layers were examined microscopically for cytopathogenic effect (CPE) and drug cytotoxicity. The test and virus control cultures were then harvested by subjecting the cell layers to one cycle of freeze-thawing. The cellular material was scraped into the ambient medium and the contents from replicate cultures were pooled, dispensed into cryotubes and stored at -135° C. The harvested test and virus control samples were thawed and the infectious virus yield was determined by plaque assay in MRC5 cells grown in 12-well cluster plates. Inhibition of HCMV replication by each test compound was determined by comparing the progeny virus yields in the drug-treated cultures with the progeny virus yield in the untreated, virus-infected control cultures.” for “air.”

[3] = system: Herpes simplex type 1 (HSV-1) strain E-377; assay: CPE-inhibition assay, herpes simplex type 1 strain E-377 in Vero cells; format: cell-based, herpes simplex virus type 1; settings: for VR (Virus Rating): HSV-1 (E-377); for IC50: Human alphaherpesvirus 1, HSV-1 (E-377), minimum drug concentration that inhibited the CPE by 50%, read-out: ID50 (the source's name)
Method: The challenge viruses were propagated and assayed in cells that were pregrown as monolayer cultures in plastic tissue culture flasks and 96-well plates, using cell culture media appropriate for the host cell cultures. The following viruses and host cell cultures were employed:
green monkey kidney (Vero)
On the day of use, a weighed sample of each compound to be evaluated was dissolved and diluted in serial 10^0.5 dilutions in the culture medium appropriate for each virus-host cell system.
Mammalian cells were pregrown as monolayers in wells of COSTAR 96-well tissue culture plates using suitable cell culture media. Stock viruses were pretitered according to the method of Reed and Muench (Amer. J. Hyg. 27:493-497, 1938) and diluted in cell culture medium to yield 32 CCID50 (cell culture infectious dose, 50%) units per 0.1 ml. Antiviral assays were designed to test seven concentrations of each compound, from cytotoxic to noncytotoxic levels, in triplicate against each of the challenge viruses in microtiter plate wells containing suitable cell monolayers. To each of the replicate cell cultures were added 0.1 ml of the test drug solution and 0.1 ml of virus suspension. Cell controls containing medium alone, virus controls containing medium and virus, and drug cytotoxicity controls containing medium and each drug concentration were run simultaneously with the test samples assayed in each experiment. […] The cell monolayers were examined microscopically for virus-induced CPE and for drug cytotoxicity.
Antiviral activity was determined by calculating the degree of inhibition of virus-induced CPE in drug-treated, virus-infected cell cultures by means of a virus rating (VR). The VR is a standard weighted measurement of antiviral activity taking into account both the degree of CPE inhibition and drug cytotoxicity, and is determined by a modification of the method of Ehrlich et al. (Ann. N.Y. Acad. Sci. 130: 5-16, 1965) as described below. CPE was graded for each individual culture in each microtiter plate well according to the following scale:
4=100% of the cells affected by virus;
3=75% of the cells affected by virus;
2=50% of the cells affected by virus;
1=25% of the cells affected by virus;
0=No CPE; normal cell monolayer.
The VR was calculated as 0.1 of the sum of the numerical differences between the recorded CPE grade of each test well and that of the corresponding virus control in the culture plate. Numerical differences between the scores of test wells containing a drug concentration which was partially cytotoxic (p) and their corresponding virus controls were halved.
The minimum inhibitory drug concentration which reduced the cytopathogenic effect (CPE) by 50% (MIC50) was calculated by using a regression analysis program for semilog curve fitting. A therapeutic index (TI) for each active compound for each susceptible virus was determined by dividing the minimum cytotoxic concentration of the test compound by the MIC50.

| SMILES | viability ([1]; 0.32 μg/ml) | viability ([1]; 1.0 μg/ml) | viability ([1]; 3.2 μg/ml) | viability ([1]; 10 μg/ml) | log reduction at 0.032 µg/mL ([2]; 0.032 μg/ml) | log reduction at 0.1 µg/mL ([2]; 0.1 μg/ml) | log reduction at 0.32 µg/mL ([2]; 0.32 μg/ml) | log reduction at 1 µg/mL ([2]; 1.0 μg/ml) | log reduction at 3.2 µg/mL [2] | log reduction at 10 µg/mL [2] | VR (Virus Rating) [3] | IC50 [3] | viability ([1]; 32 μg/ml) | viability ([1]; 100 μg/ml) | viability ([1]; 320 μg/ml) | log reduction at 32 µg/mL ([2]; 32 μg/ml) | log reduction at 100 µg/mL ([2]; 100 μg/ml) | log reduction at 320 µg/mL ([2]; 320 μg/ml) |
| --- | --- | --- | --- | --- | --- | --- | --- | --- | --- | --- | --- | --- | --- | --- | --- | --- | --- | --- |
| Nc1ccn([C@@H]2O[C@H](CO)[C@H]2CO)c(=O)n1 [Example 22, 1-([2'R,3'R,4'S]-3',4'-Bis(hydroxymethyl)-2'-oxetanyl)cytosine] | 84% | 81% | 77% | 78% | 0.8 | 1.4 | 1.9 | 4.1 | > 4.4 | > 4.4 | 2.65 | 0.8 µg/mL (≈ 3.52 µM) |  |  |  |  |  |  |
| O=c1ccn([C@@H]2O[C@H](CO)[C@H]2CO)c(=O)[nH]1 [Example 23, 1-([2'R,3'R,4'S]-3',4'-Bis(hydroxymethyl)-2'-oxetanyl)uracil] |  |  |  | 100% |  |  |  |  | 0.2 | 0.4 | 0.6 | 307 µg/mL (≈ 1340 µM) | 100% | 98% | 100% | 0.5 | 0.9 | 1.9 |

Source: US5420276A, “Analogs of oxetanyl purines and pyrimidines” (Abbott Laboratories, priority 1993, dated 1995)
